Test systems include 786-0; BT-549; CCRF-CEM; EKVX; HCT-15; HOP-62; HOP-92; HT-29; KM12; MCF7; MDA-MB-435; NCI-H522; OVCAR-4; OVCAR-5; PC-3; SF-539; SK-OV-3; SNB-19; SNB-75; TK-10.
What all share (assay): NCI-60 cell line screen, 48 h

Molecules are shown by their SMILES.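 Each compound was tested at five concentrations against cells in 96-well plates for 48 hours. GI50 is the concentration that inhibits growth by half.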 Active and inactive are the calls of the source. Cut-off read from the data, not from the text of the source: active = GI50 up to about 1.1 µM and inactive = higher. A value given as a limit tells only on which side of the number the result lay.

Take `COc1ccccc1CC1(O)OC(=O)c2ccccc21` (stereo not given): the GI50 was > 100 µM (inactive) in the experiment on 786-0; > 100 µM (inactive) in the experiment on BT-549; > 100 µM (inactive) in the experiment on CCRF-CEM; > 100 µM (inactive) with EKVX; more than 100 µM in the experiment with HCT-15; > 100 µM (inactive) in the experiment on HOP-62. For the same compound, the GI50 in the experiment with HOP-92, with HT-29, in the experiment on KM12, in the experiment on MCF7, in the experiment with MDA-MB-435 and in the experiment on NCI-H522 was > 100 µM (inactive) throughout. The GI50 in the experiment with OVCAR-4, in the experiment on OVCAR-5, with PC-3, in the experiment on SF-539, in the experiment with SK-OV-3 and in the experiment with SNB-19 was > 100 µM (inactive) each time. Besides, the GI50 in the experiment with SNB-75 and in the experiment on TK-10 was > 100 µM (inactive) each time.

The values are drawn from ChEMBL document CHEMBL1201862, “PubChem BioAssay data set” (2004).
